{
  "source": "patent US8834942B2",
  "about": "“Enhanced absorption of oregano derived oils” (priority 2010, dated 2014)",
  "origin": "cited, not measured here",
  "conditions": "single emulsifier",
  "data": [
    {"substance": "polyoxyethylene sorbitan monooleate", "values": [
      {"measurement": "HLB value", "result": "about 15"}
    ]}
  ]
}
